The values that follow come from PubChem BioAssay (NCI).

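Following 48 hours of exposure in 96-well plates, responses at five concentrations were used to interpolate endpoints linearly. GI50 = concentration required for 50% inhibition of growth. TGI denotes the concentration required for complete inhibition of growth.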

Common to all, as to test: DTP human tumour cell line panel, 48 h
Assay [1] has as its system MCF7 breast.
In assay [2] the test system is LOX IMVI melanoma.
Assay [3] concerns A549 NSCLC.
Assay [4] deals with OVCAR-4 ovarian.
The test system of assay [5] is DU-145 prostate.
For assay [6], the system named is HOP-92 NSCLC.
Assay [7] concerns RPMI-8226 leukemia.
Assay [8] concerns OVCAR-8 ovarian.
The test system of assay [9] is SK-OV-3 ovarian.
Assay [10] has as its system SR leukemia.

With `NC1=NC(c2ccc(Cl)cc2)N(c2ccc(S(N)(=O)=O)cc2)C(N)=N1` (stereo not drawn), the total growth inhibition concentration (TGI) in [1], in [2], in assay [3], in assay [4], in assay [5] and in assay [6] was > 100 µM each time. Further, the concentration for total growth inhibition (TGI) in assay [7], in [8], in [9] and in assay [10] was > 100 µM each time.

For the compound `COc1cccc2c1-c1c(c3ccc([N+](=O)[O-])cc3c(=O)n1CCCN)C2=O`, the GI50 in assay [1] was 0.0486 µM; in assay [2], 1.2 µM; in assay [3] it was 11 µM; in assay [4], 1.55 µM; in assay [5], 1.06 µM; in assay [6], 5.64 µM. For the same compound, the GI50 was 1.65 µM in assay [7], 1.5 µM in assay [8], 11.5 µM in assay [9] and 0.0256 µM in [10]. For the same compound, the concentration for total growth inhibition (TGI) in assay [1] stood at 1.59 µM; in [2] it was 2.64 µM; in assay [3] it was 34.4 µM; in assay [4], 3.94 µM; in assay [5], 6.15 µM; in assay [6] it was 13.3 µM. Besides, the concentration for total growth inhibition (TGI) in assay [7] is 5.84 µM; in assay [8], 5.66 µM; in [9], 29.8 µM; in assay [10], 0.379 µM.

Turning to `Cc1cc(Nc2nc(-c3cccnc3)nc3ccccc23)n[nH]1`, the GI50 is 1.28 µM in assay [1]; 0.712 µM in assay [2]; 0.672 µM in assay [3]; 2.05 µM in [4]; 10.7 µM in [5]; 1.62 µM in [6]. Besides, the GI50 is > 38.5 µM in assay [7], 9.55 µM in [8], 0.956 µM in [9] and 0.481 µM in assay [10]. Further, the TGI is > 100 µM in assay [1]; 3.57 µM in [2]; > 100 µM in [3]; > 100 µM in assay [4]; > 100 µM in [5]; 6.63 µM in assay [6]. Besides, the TGI in assay [7] was > 95.1 µM; in assay [8], > 100 µM; in assay [9] it was > 100 µM; in [10], > 38.5 µM.

As for `CCC(c1ccc(OC)cc1)C(CC)c1ccc(O)c(CN2CCN(C)CC2)c1` (stereo not drawn), the GI50 in assay [1] is 2.42 µM; in [2] it was 2.48 µM; in [3], 8.26 µM; in [4] it was 7.22 µM; in assay [5] it was 11.3 µM; in [6] it was 2 µM. For the same compound, the GI50 in assay [7] was 2.92 µM; in assay [8], 6.35 µM; in assay [9], 13.8 µM; in [10], 1.71 µM. Also, the TGI came to 5.09 µM in [1]; 7.64 µM in [2]; 22.8 µM in [3]; 22.4 µM in assay [4]; 24.1 µM in assay [5]; 9.64 µM in assay [6]. The total growth inhibition concentration (TGI) in assay [7] was 9.5 µM; in assay [8] it was 21.8 µM; in assay [9], 29.2 µM; in assay [10], 5.44 µM.

For `CCOc1cc(Br)c(C(C)NC(=O)c2cccc(OC)c2)cc1OCC` (stereo not drawn), the GI50 in assay [1] is 5.38 µM; in assay [2], 22.8 µM; in assay [3] it was 10.8 µM; in [4], 13.2 µM; in assay [5] it was 26.4 µM; in assay [6], 8.97 µM. In addition, the GI50 is 13.9 µM in assay [7], 25.6 µM in [8], 23.1 µM in [9] and 3.26 µM in assay [10]. Moreover, the total growth inhibition concentration (TGI) is > 100 µM in assay [1]; > 100 µM in assay [2]; > 100 µM in assay [3]; > 93.5 µM in [4]; > 100 µM in [5]; > 83.5 µM in [6]. Besides, the concentration for total growth inhibition (TGI) was > 92.1 µM in assay [7], > 100 µM in assay [8], > 100 µM in [9] and > 100 µM in [10].

As to `O=C(O)c1cn(C2CC2)c2cc(N3CCN(C(=O)Nc4nc(-c5ccccc5)cs4)CC3)c(F)cc2c1=O`, the GI50 in [1] is 1.72 µM; in assay [2], 0.281 µM; in assay [3] it was 2.15 µM; in assay [4] it was 2.93 µM; in assay [5] it was 1.05 µM; in [6] it was 1.13 µM. Besides, the GI50 was 0.826 µM in [7], 1.45 µM in assay [8], 1.95 µM in assay [9] and 0.35 µM in [10]. Moreover, the total growth inhibition concentration (TGI) in assay [1] is > 100 µM; in assay [2] it was 1.03 µM; in [3], > 100 µM; in [4], > 100 µM; in assay [5] it was 15.8 µM; in assay [6], 5.99 µM. In addition, the TGI is 7.41 µM in assay [7], 49.2 µM in assay [8], 7.38 µM in assay [9] and 73.8 µM in assay [10].

For `COc1ccc(/C=c2\sc3n(c2=O)C2C(NN=3)N(C)C(=O)N2C)cc1` (stereo not drawn), the 50% growth inhibitory concentration (GI50) is 0.384 µM in assay [1]; 1.63 µM in assay [2]; 1.35 µM in assay [3]; > 100 µM in [4]; 1.32 µM in assay [5]; 0.513 µM in assay [6]. For the same compound, the GI50 is 0.455 µM in assay [7], 1.75 µM in [8], 2.13 µM in [9] and 0.316 µM in [10]. Further, the TGI in assay [1], in assay [2], in [3], in assay [4], in assay [5] and in [6] was > 100 µM in each case. Besides, the TGI in assay [7] was > 19.6 µM; in assay [8], > 100 µM; in assay [9], > 100 µM; in [10], > 100 µM.

For `Clc1ccc(-c2csc(Nc3cccc(-c4csc(-c5ccccc5)n4)c3)n2)cc1`, the GI50 was 10.3 µM in [1]; 3.53 µM in assay [2]; 15.2 µM in assay [3]; 9.15 µM in assay [5]; 12.5 µM in assay [6]; 19.2 µM in assay [7]. Moreover, the GI50 in [8] is 14.6 µM; in [9], 25.3 µM; in assay [10] it was 6.8 µM. Also, the TGI in [1] was > 50 µM; in [2], 9.79 µM; in assay [3], 43.4 µM; in assay [5] it was 17.5 µM; in [6] it was > 50 µM; in [7] it was > 50 µM. Besides, the TGI was 39 µM in [8], > 50 µM in [9] and 28.7 µM in [10].
